Source: patent US7592366B2, “Therapeutic compounds” (Allergan, Inc., priority 2006, dated 2009)

Key:
hTP = molecular target: T1, hTP (Homo sapiens, UniProt P21731); assay: FLIPR calcium signal, hTP; format: cell-based; settings: read-out: Other Receptors (EC50 in nM) hTP
T1 construct: expressed in transfected cells; host or cells: HEK-293(EBNA)
T1 sequence (P21731 1-343): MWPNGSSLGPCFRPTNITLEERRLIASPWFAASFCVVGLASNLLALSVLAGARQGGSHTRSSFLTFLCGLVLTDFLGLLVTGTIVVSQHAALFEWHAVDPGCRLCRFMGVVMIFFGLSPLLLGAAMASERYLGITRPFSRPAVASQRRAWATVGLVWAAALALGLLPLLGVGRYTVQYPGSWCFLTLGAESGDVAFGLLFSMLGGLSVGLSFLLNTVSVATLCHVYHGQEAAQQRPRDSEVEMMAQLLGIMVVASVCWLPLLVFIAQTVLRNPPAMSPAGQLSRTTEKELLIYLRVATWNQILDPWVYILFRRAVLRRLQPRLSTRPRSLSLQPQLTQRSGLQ
Experimental: (§1) HEK-293(EBNA) cells, stably expressing one type or subtype of recombinant human prostaglandin receptors (prostaglandin receptors expressed: hDP/Gqs5; hEP1; hEP2/Gqs5; hEP3A/Gqi5; hEP4/Gqs5; hFP; hIP; hTP), were cultured in 100 mm culture dishes in high-glucose DMEM medium containing 10% fetal bovine serum, 2 mM l-glutamine, 250 μg/ml geneticin (G418) and 200 μg/ml hygromycin B as selection markers, and 100 units/ml penicillin G, 100 μg/ml streptomycin and 0.25 μg/ml amphotericin B.
Cells were seeded at a density of 5×10^4 cells per well in Biocoat® Poly-D-lysine-coated black-wall, clear-bottom 96-well plates (Becton-Dickinson) and allowed to attach overnight in an incubator at 37° C. Cells were then washed two times with HBSS-HEPES buffer (Hanks Balanced Salt Solution without bicarbonate and phenol red, 20 mM HEPES, pH 7.4) using a Denley Cellwash plate washer (Labsystems). After 45 minutes of dye-loading in the dark, using the calcium-sensitive dye Fluo-4 […] at a final concentration of 2 μM, plates were washed four times with HBSS-HEPES buffer to remove excess dye leaving 100 μl in each well. Plates were re-equilibrated to 37° C. for a few minutes.
Cells were excited with an Argon laser at 488 nm, and emission was measured through a 510-570 nm bandwidth emission filter (FLIPR™, Molecular Devices, Sunnyvale, Calif.). Drug solution was added in a 50 μl volume to each well to give the desired final concentration. The peak increase in fluorescence intensity was recorded for each well. On each plate, four wells each served as negative (HBSS-HEPES buffer) and positive controls (standard agonists: BW245C (hDP); PGE2 (hEP1; hEP2/Gqs5; hEP3A/Gqi5; hEP4/Gqs5); PGF2α (hFP); carbacyclin (hIP); U-46619 (hTP), depending on receptor). The peak fluorescence change in each drug-containing well was then expressed relative to the controls.
Compounds were tested in a high-throughput (HTS) or concentration-response (CoRe) format. […]

hFP = molecular target: T2, hFP (Homo sapiens, UniProt P43088); assay: FLIPR calcium signal, hFP; format: cell-based; settings: read-out: Other Receptors (EC50 in nM) hFP
T2 construct: expressed in transfected cells; host or cells: HEK-293(EBNA)
T2 sequence (P43088 whole entry): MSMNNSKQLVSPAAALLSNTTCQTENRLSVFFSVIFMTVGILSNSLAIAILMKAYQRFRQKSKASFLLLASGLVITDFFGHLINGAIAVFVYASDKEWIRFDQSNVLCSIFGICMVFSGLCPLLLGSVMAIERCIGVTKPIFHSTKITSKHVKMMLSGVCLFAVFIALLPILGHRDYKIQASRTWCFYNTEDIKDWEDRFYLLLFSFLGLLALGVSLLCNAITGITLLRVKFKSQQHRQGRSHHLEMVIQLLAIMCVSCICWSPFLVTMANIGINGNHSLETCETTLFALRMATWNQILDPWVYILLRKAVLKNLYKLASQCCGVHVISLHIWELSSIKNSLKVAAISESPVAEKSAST
Experimental: as §1
Cells were seeded at a density of 5×10^4 cells per well in Biocoat® Poly-D-lysine-coated black-wall, clear-bottom 96-well plates (Becton-Dickinson) and allowed to attach overnight in an incubator at 37° C. Cells were then washed two times with HBSS-HEPES buffer (Hanks Balanced Salt Solution without bicarbonate and phenol red, 20 mM HEPES, pH 7.4) using a Denley Cellwash plate washer (Labsystems). […]
Cells were excited with an Argon laser at 488 nm, and emission was measured through a 510-570 nm bandwidth emission filter (FLIPR™, Molecular Devices, Sunnyvale, Calif.). […] The peak increase in fluorescence intensity was recorded for each well. […] The peak fluorescence change in each drug-containing well was then expressed relative to the controls. […]

Compound | EC50 (hTP) [nM] | EC50 (hFP) [nM]
O=C(O)c1ccc(CCC[C@@H]2[C@@H](CCc3cc(F)cc(F)c3)[C@H](O)C[C@H]2Cl)s1 [11d, 5-(3-((1R,2R,3R,5R)-5-chloro-2-(3,5-difluorophenethyl)-3-hydroxycyclopentyl)propyl)thiophene-2-carboxylic acid] | 64 | –
O=C(O)c1ccc(CCC[C@@H]2[C@@H](CCc3cc(Cl)cc(Cl)c3)[C@@H](O)C[C@H]2Cl)s1 [compound 17, 5-(3-((1R,2R,3S,5R)-5-chloro-2-(3,5-dichlorophenethyl)-3-hydroxycyclopenty)propyl)thiophene-2-carboxylic acid] | – | > 10000
